# Source: patent publication US8192962B2, “Processes for detecting toxic substances” (Daikin Industries, Ltd., priority 2001, dated 2012)
# Tested on: Unknown protein yeast genes
# Assay: DNA chip mRNA expression in yeast, unknown protein yeast genes (Table 1)
# Type: cell-based, Saccharomyces cerevisiae S288C
# In short: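 Values are treated/untreated fluorescence ratios from a whole-genome yeast DNA chip hybridized over 12 hours at 65° C with Cy3- or Cy5-labelled cDNA from poly(A) mRNA. Log-phase S288C yeast in YPD at 25° C had received a single toxic chemical for two hours, dosed to slow growth without killing.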
structure (smiles),measurement,setting,value
"S=C([S-])NCCNC(=S)[S-].[Zn+2] [(11), zinc N,N′-ethylenebis(dithiocarbamate)]",The level of expressed mRNA in the presence of chemical substance/The level of expressed mRNA in the absence of chemical substance,"yeast gene YAL053W, incubated two hours with chemical substance",2.3
same,The level of expressed mRNA in the presence of chemical substance/The level of expressed mRNA in the absence of chemical substance,yeast gene YBL048W,2.0
same,The level of expressed mRNA in the presence of chemical substance/The level of expressed mRNA in the absence of chemical substance,yeast gene YBL107C,2.9
same,The level of expressed mRNA in the presence of chemical substance/The level of expressed mRNA in the absence of chemical substance,"yeast gene YDL072C, incubated two hours with chemical substance",1.4
same,The level of expressed mRNA in the presence of chemical substance/The level of expressed mRNA in the absence of chemical substance,"yeast gene YDL204W, incubated two hours with chemical substance",3.2
same,The level of expressed mRNA in the presence of chemical substance/The level of expressed mRNA in the absence of chemical substance,"yeast gene YDL222C, incubated two hours with chemical substance",2.6
same,The level of expressed mRNA in the presence of chemical substance/The level of expressed mRNA in the absence of chemical substance,"yeast gene YDR330W, incubated two hours with chemical substance",0.9
same,The level of expressed mRNA in the presence of chemical substance/The level of expressed mRNA in the absence of chemical substance,"yeast gene YDR391C, incubated two hours with chemical substance",1.9
same,The level of expressed mRNA in the presence of chemical substance/The level of expressed mRNA in the absence of chemical substance,"yeast gene YDR411C, incubated two hours with chemical substance",1.3
same,The level of expressed mRNA in the presence of chemical substance/The level of expressed mRNA in the absence of chemical substance,"yeast gene YDR511W, incubated two hours with chemical substance",1.2
same,The level of expressed mRNA in the presence of chemical substance/The level of expressed mRNA in the absence of chemical substance,"yeast gene YDR545W, incubated two hours with chemical substance",0.7
same,The level of expressed mRNA in the presence of chemical substance/The level of expressed mRNA in the absence of chemical substance,"yeast gene YEL001C, incubated two hours with chemical substance",1.2
same,The level of expressed mRNA in the presence of chemical substance/The level of expressed mRNA in the absence of chemical substance,"yeast gene YER004W, incubated two hours with chemical substance",2.2
same,The level of expressed mRNA in the presence of chemical substance/The level of expressed mRNA in the absence of chemical substance,"yeast gene YER035W, incubated two hours with chemical substance",1.4
same,The level of expressed mRNA in the presence of chemical substance/The level of expressed mRNA in the absence of chemical substance,"yeast gene YER079W, incubated two hours with chemical substance",2.1
same,The level of expressed mRNA in the presence of chemical substance/The level of expressed mRNA in the absence of chemical substance,"yeast gene YER106W, incubated two hours with chemical substance",1.0
same,The level of expressed mRNA in the presence of chemical substance/The level of expressed mRNA in the absence of chemical substance,"yeast gene YER158C, incubated two hours with chemical substance",2.3
same,The level of expressed mRNA in the presence of chemical substance/The level of expressed mRNA in the absence of chemical substance,"yeast gene YER163C, incubated two hours with chemical substance",1.6
same,The level of expressed mRNA in the presence of chemical substance/The level of expressed mRNA in the absence of chemical substance,"yeast gene YER175C, incubated two hours with chemical substance",1.1
same,The level of expressed mRNA in the presence of chemical substance/The level of expressed mRNA in the absence of chemical substance,"yeast gene YFL006W, incubated two hours with chemical substance",1.2
same,The level of expressed mRNA in the presence of chemical substance/The level of expressed mRNA in the absence of chemical substance,"yeast gene YFL010C, incubated two hours with chemical substance",1.4
same,The level of expressed mRNA in the presence of chemical substance/The level of expressed mRNA in the absence of chemical substance,yeast gene YFL024C,0.6
same,The level of expressed mRNA in the presence of chemical substance/The level of expressed mRNA in the absence of chemical substance,"yeast gene YFL032W, incubated two hours with chemical substance",1.1
same,The level of expressed mRNA in the presence of chemical substance/The level of expressed mRNA in the absence of chemical substance,"yeast gene YGL037C, incubated two hours with chemical substance",3.9
same,The level of expressed mRNA in the presence of chemical substance/The level of expressed mRNA in the absence of chemical substance,"yeast gene YGL047W, incubated two hours with chemical substance",1.9
same,The level of expressed mRNA in the presence of chemical substance/The level of expressed mRNA in the absence of chemical substance,"yeast gene YGL053W, incubated two hours with chemical substance",1.3
same,The level of expressed mRNA in the presence of chemical substance/The level of expressed mRNA in the absence of chemical substance,yeast gene YGL121C,6.1
same,The level of expressed mRNA in the presence of chemical substance/The level of expressed mRNA in the absence of chemical substance,yeast gene YGL218W,0.1
same,The level of expressed mRNA in the presence of chemical substance/The level of expressed mRNA in the absence of chemical substance,"yeast gene YGR101W, incubated two hours with chemical substance",2.0
same,The level of expressed mRNA in the presence of chemical substance/The level of expressed mRNA in the absence of chemical substance,yeast gene YGR110W,0.5
same,The level of expressed mRNA in the presence of chemical substance/The level of expressed mRNA in the absence of chemical substance,"yeast gene YGR130C, incubated two hours with chemical substance",0.8
same,The level of expressed mRNA in the presence of chemical substance/The level of expressed mRNA in the absence of chemical substance,yeast gene YGR142W,2.3
same,The level of expressed mRNA in the presence of chemical substance/The level of expressed mRNA in the absence of chemical substance,"yeast gene YGR154C, incubated two hours with chemical substance",1.5
same,The level of expressed mRNA in the presence of chemical substance/The level of expressed mRNA in the absence of chemical substance,"yeast gene YGR221C, incubated two hours with chemical substance",0.5
same,The level of expressed mRNA in the presence of chemical substance/The level of expressed mRNA in the absence of chemical substance,"yeast gene YHR138C, incubated two hours with chemical substance",1.6
same,The level of expressed mRNA in the presence of chemical substance/The level of expressed mRNA in the absence of chemical substance,"yeast gene YHR199C, incubated two hours with chemical substance",1.9
same,The level of expressed mRNA in the presence of chemical substance/The level of expressed mRNA in the absence of chemical substance,"yeast gene YIL023C, incubated two hours with chemical substance",1.1
same,The level of expressed mRNA in the presence of chemical substance/The level of expressed mRNA in the absence of chemical substance,"yeast gene YIL041W, incubated two hours with chemical substance",1.4
same,The level of expressed mRNA in the presence of chemical substance/The level of expressed mRNA in the absence of chemical substance,"yeast gene YIL087C, incubated two hours with chemical substance",2.8
same,The level of expressed mRNA in the presence of chemical substance/The level of expressed mRNA in the absence of chemical substance,yeast gene YIL089W,0.7
same,The level of expressed mRNA in the presence of chemical substance/The level of expressed mRNA in the absence of chemical substance,"yeast gene YJL057C, incubated two hours with chemical substance",2.0
same,The level of expressed mRNA in the presence of chemical substance/The level of expressed mRNA in the absence of chemical substance,"yeast gene YJL066C, incubated two hours with chemical substance",0.8
same,The level of expressed mRNA in the presence of chemical substance/The level of expressed mRNA in the absence of chemical substance,"yeast gene YJL082W, incubated two hours with chemical substance",1.0
same,The level of expressed mRNA in the presence of chemical substance/The level of expressed mRNA in the absence of chemical substance,"yeast gene YJL151C, incubated two hours with chemical substance",1.0
same,The level of expressed mRNA in the presence of chemical substance/The level of expressed mRNA in the absence of chemical substance,"yeast gene YJL152W, incubated two hours with chemical substance",1.0
same,The level of expressed mRNA in the presence of chemical substance/The level of expressed mRNA in the absence of chemical substance,"yeast gene YJL161W, incubated two hours with chemical substance",3.7
same,The level of expressed mRNA in the presence of chemical substance/The level of expressed mRNA in the absence of chemical substance,"yeast gene YJL171C, incubated two hours with chemical substance",2.2
same,The level of expressed mRNA in the presence of chemical substance/The level of expressed mRNA in the absence of chemical substance,"yeast gene YJR008W, incubated two hours with chemical substance",1.4
same,The level of expressed mRNA in the presence of chemical substance/The level of expressed mRNA in the absence of chemical substance,"yeast gene YJR054W, incubated two hours with chemical substance",0.7
same,The level of expressed mRNA in the presence of chemical substance/The level of expressed mRNA in the absence of chemical substance,yeast gene YKL071W,40.3
same,The level of expressed mRNA in the presence of chemical substance/The level of expressed mRNA in the absence of chemical substance,"yeast gene YKL086W, incubated two hours with chemical substance",0.7
same,The level of expressed mRNA in the presence of chemical substance/The level of expressed mRNA in the absence of chemical substance,"yeast gene YKL151C, incubated two hours with chemical substance",2.3
